Results taken from paper PMC8899516, “Structure-Activity Relationship Studies of 4-((4-(2-fluorophenyl)piperazin-1-yl)methyl)-6-imino-N-(naphthalen-2-yl)-1,3,5-triazin-2-amine (FPMINT) Analogues as Inhibitors of Human Equilibrative Nucleoside Transporters” (Frontiers in Pharmacology, 2022).

Legend:
Type in all cases: cell-based, porcine
Details in all cases: 50 µM, 24 or 48 h
PK15NTD/ENT1 cells [1] = assay: Cell viability, MTT assay
Protocol: (§1) PK15NTD/ENT1 and PK15NTD/ENT2 cells were seeded onto 96-well plates until they reached 80–90% confluent. The cells were then treated with different concentrations of compound 3c or an equivalent volume of a vehicle (0.5% dimethyl sulfoxide (DMSO), as a control) in a serum-free medium for another 24 or 48 h. For measuring cell membrane integrity, the lactate dehydrogenase (LDH) released into the culture medium was measured with a detection kit (Abcam, Cambridge, UK) according to the manufacturer’s instructions. The absorbance at 490 nm was measured with a microplate absorbance reader. For measuring cell viability, 0.5 mg/ml methylthiazolyldiphenyl-tetrazolium bromide (MTT) was added to each well. […] The absorbance was measured at 560 nm, with the absorbance at 655 nm serving as the background.
(§2) FIGURE 5 Effects of compound 3c on cytotoxicity and protein expressions of ENT1 and ENT2. Cytotoxicity of compound 3c was measured after 24 h or 48 h treatment of PK15NTD/ENT1 and PK15NTD/ENT2 cells with various concentrations of compound 3c (0.5, 5 and 50 μM) or a vehicle (0.5% DMSO, as a control) (A) The cell viability and (B) cell membrane integrity were determined by the MTT assay and LDH release, respectively (C) PK15NTD/ENT1 and (D) PK15NTD/ENT2 cells were incubated with 50 μM of compound 3c or a vehicle (0.5% DMSO, as a control) for 24 or 48 h. […]

PK15NTD/ENT2 cells [2] = assay: Cell viability, MTT assay
Protocol: as §1, §2

PK15NTD/ENT1 cells [3] = assay: Cell membrane integrity, LDH release
Protocol: as §1, §2

PK15NTD/ENT2 cells [4] = assay: Cell membrane integrity, LDH release
Protocol: as §1, §2

Cc1cccc(Nc2nc(N)nc(CN3CCN(c4ccc(F)cc4)CC3)n2)c1 [Compound 3c]
No significant changes: cell viability (PK15NTD/ENT1 cells [1]) | cell viability (PK15NTD/ENT2 cells [2]) | cell membrane integrity (PK15NTD/ENT1 cells [3]) | cell membrane integrity (PK15NTD/ENT2 cells [4])
